# A melting point compilation (Tetko et al.; mined from patent text by program, amines drawn as free bases though some values may be those of a salt)
row,Compound,melting point [°C]
1,CC1(C)CCC(C)(C)c2cc(-c3cc(-c4ccc(C=O)cc4)on3)ccc21,179 to 180
2,C=CC[C@H](C(N)=O)[C@@H](CC(C)C)C(=O)NC1N=C(c2ccccc2)c2cc(OC)ccc2N(C)C1=O (some centres undefined),244 to 255
3,CC(C)(C)C(=C=CCl)c1ccccc1-c1ccccc1,85 to 86
4,O=C1C=C(c2ccccc2)NCCN1,204 to 206
5,Cn1c(=O)ccc2c(-c3ccccc3)nccc21,190 to 192
6,COC(=O)C(Cl)(Cl)Cc1c(Cl)cc(Cl)cc1Cl,56 to 57
7,Cc1cc2c(s1)Oc1ccc(Cl)cc1NC2=O,250 to 253
8,CCCCCCCCCCCC(=O)Oc1ccc(-c2nc(-c3ccc(N(C)C)cc3)c(C)[nH]2)cc1OC,110 to 112
9,O=[N+]([O-])c1ccc(Oc2ccc(C(c3ccc(Oc4ccc([N+](=O)[O-])c(O)c4)cc3)(C(F)(F)F)C(F)(F)F)cc2)cc1O,148 to 151
10,C=CC(=O)N1CCSc2ccccc2C1,108 to 110
11,CS(=O)(=O)OCCCn1cc(C2=C(c3ccccc3[N+](=O)[O-])C(=O)NC2=O)c2ccccc21,177 to 178
12,Nc1cc(Cl)cc2cccnc12,70 to 73
13,O=C(O)CC1(O)CCc2c([nH]c3ccccc23)C1=O (centres undefined),156 to 157
14,CCCCOC(=O)c1ccc(-c2cc(-c3ccc4c(c3)C(C)(C)CCC4(C)C)nc(O)n2)cc1,267 to 277
15,OCC(O)CNc1nc(-c2ccc(Cl)c(Cl)c2)nc2ccccc12 (centres undefined),162 to 164
16,ClCc1ccc(-c2ccccc2)cn1,73
17,CCON=Cc1cnnc2ccccc12,78 to 81
18,O=C(O)c1ccc(C(=O)C=Cc2ccccc2)cc1,217 to 220
19,CNC(=S)SCCC(=O)N1CCC[C@H]1C(=O)OC(C)(C)C,129 to 130
20,COc1ccc(CNc2nnc(Cl)c3cc(Cl)ccc23)cc1Cl,168 to 170
21,Cc1ccc(CCOc2cccc3c(Cl)ccnc23)cc1,74 to 75
22,COC(=O)c1cc2cc(OC)c(OC)cc2c(C)c1C(=O)OC,142 to 144
23,CCCn1c(COCC)nc2c(N)nc3cc(O)ccc3c21,> 250

row,Compound,melting point [°C]
1,COc1ccc(C(O)=C(C#N)C(=O)C(C)(C)C)c([N+](=O)[O-])c1,85 to 88
2,Cc1ccc(Cc2c(C(F)(F)F)[nH][nH]c2=O)cc1,150 to 152
3,OC(Cc1cnc(-c2c(F)cccc2F)nn1)c1ccc(Cl)cc1 (centres undefined),98 to 102
4,CC(C)(S)C1COC(=O)N1 (centres undefined),124 to 126
5,O=[N+]([O-])c1cccc(-c2ccnc3[nH]c4ccccc4c23)c1,> 220
6,CSc1nc2ccnn2c(O)c1C#N,> 250
7,C=CS(=O)(=O)NCc1ccc(OC)cc1,68 to 69
8,COC(=O)CC(NC(=O)C1CCCCC1)C(C)=O (centres undefined),87 to 88
9,CS(=O)(=O)c1ccc(-c2cnn(-c3csc4ccccc34)c(=O)c2-c2ccc(F)cc2)cc1,265 to 267
10,COC(=O)COc1ccc(OC/C=C(/c2ccc(Cl)cc2)c2ccc(I)cc2)cc1C,89 to 92
11,Cc1cc([N+](=O)[O-])cc2c1S(=O)C=N2 (centres undefined),> 250
12,O=c1ncc(Cl)cn1COCc1cccs1,132
13,C#CCCCOc1cc(C=O)ccc1OC,73 to 74
14,CN1Cc2c(C#CC(C)(C)C)ncn2-c2ccccc2C1=O,148 to 150
15,CC(C)[C@H](NC(=O)OCc1ccccc1)C(=O)NCC(=O)OC(C)(C)C,139 to 141
16,COc1ccc(S(=O)(=O)Nc2cnccc2Nc2ccccc2)cc1,201 to 202
17,CC(=O)c1c(NC(=O)c2ccc([N+](=O)[O-])cc2)cccc1C(F)(F)F,245
18,CN(C(=O)CN(C(=O)CNC(=O)OC(C)(C)C)c1ccccc1O)c1ccccc1,185 to 188
19,CN1C(=O)Nc2c(Cl)cc(Cl)cc2C12NC(=O)NC2=O (centres undefined),> 280
20,Cc1cc(N=CN(C)C)c(C)cc1O,212
21,CC(=O)C1CCC2C3CCC4CC(O)(C#Cc5ccccn5)CCC4(C)C3CCC12C (centres undefined),192 to 195
22,FC(F)(F)c1cccc(-c2ccnc(S)n2)c1,200 to 205

# Now from value to compound:
row,melting point [°C],Compound
1,119 to 120,CCCC1CCN(CCCCC(=O)c2cc(Cl)c(N)cc2OCc2cc(OC)cc(OC)c2)CC1
2,200 to 203,CCCCc1nn(-c2cc(NC(=O)CC)ccc2Cl)c(=O)n1Cc1ccc(-c2ccccc2S(=O)(=O)NC(=O)c2c(F)cccc2Cl)cc1F
3,235 to 237,Cn1ccc2cc(N3Cc4ccc(Br)cc4C3=O)ccc21
4,> 250,O=c1[nH]c(N2CCOCC2)nc2c1CC(S(=O)(=O)c1ccccc1)CC2 (centres undefined)
5,128 to 129,Cc1nn(-c2ccc(C(F)(F)F)cn2)cc1COc1cc(CO)n(C)n1
6,81 to 82,O=C(O)c1cc(Cl)cc(Oc2cccc(C(F)(F)F)c2)n1
7,137 to 145,CN1CCC(c2cccc3ccc(NC(=O)c4ccccc4)cc23)C1 (centres undefined)
8,127 to 129,CC1(C2CCCC2)Cc2cc(OCCCCCC(=O)O)c(Cl)c(Cl)c2C1=O (centres undefined)
9,110 to 112,Cc1ccc(-c2nn(C(C)(C)C(=O)N(C)C)cc2C)c(C)c1
10,154,CC(C)Cn1nc(-c2ccccc2)c(-c2ccccc2)c1CO
11,109,"COC(=O)C1=C(C)NC(C)=C(C(=O)O)C1c1ccccc1C(F)(F)F (single isomer, unassigned; (+))"
12,274 to 278,Cc1cc(F)c(Nc2ncnc3cc(O)ccc23)cc1O
13,138 to 140,O=C(O)C[C@@H](NC(=O)CN1C[C@H](c2ccccc2)Oc2ccc(NC(=O)NCc3ccccc3)cc2C1=O)c1ccccc1
14,201 to 202,CC(C)(C)C(NC(=O)c1cccc2c1-c1ccccc1C2=O)Nc1c(Nc2cccnc2)c(=O)c1=O (centres undefined)
15,142 to 143,Cc1cccc(-n2nc(C(N)=O)nc2-c2ccccc2)c1
16,107 to 108,CCOC(=O)C1SC(c2ccc3ccccc3c2)=NN1C(=O)CCSC(C)=O (centres undefined)
17,59 to 62,CC(O)(C(=O)NCCC(F)(F)F)C(=O)NC1C(=O)N(CCO)c2ccccc2-c2ccccc21 (centres undefined)
18,223 to 225,O=c1[nH]c(=Cc2ccc(OCc3ccccc3)cn2)c(=O)[nH]c1=Cc1ccccc1
19,161 to 162,O=C1NCCCc2cc(OCCCN3CCN(Cc4ccc5ccccc5n4)CC3)ccc21
20,237 to 238,O=C(O)COc1cc2c(=O)c3ccccc3oc2cc1Cl
21,202 to 203,COC(=O)C(=Cc1c[nH]c2cc(Cl)ccc12)NC(C)=O
22,112 to 113,COc1ccc2c3c(c(=O)oc2c1)CN(CCN1CC2CCC1CC2)CC3
23,194,NC(=O)C1CCN(c2cccc3c2OCCO3)CC1
24,204 to 206,O=S(=O)(c1ccccc1)n1c2ccc(Br)cc2c2ccc(Cl)nc21
25,157 to 160,CCOC(=O)C(=O)Nc1c([N+](=O)[O-])sc2ccc(Br)cc12
26,308 to 312,CC(C)n1c(S)nc(-c2ccc(F)cc2)c1-c1ccc(F)cc1
27,174 to 175,COC(=O)c1ccc(Cc2cccc3ccc(C(=O)NCC(C)C)cc23)c(OC)c1

row,melting point [°C],Compound
1,> 300,O=C(O)Cn1c2c([nH]c(=O)c1=O)CCC1=C2C=C(n2ccc(CN3CCN(c4ccc([N+](=O)[O-])cc4)CC3)c2)CC1
2,120 to 123,O=CN(O)C(CS(=O)(=O)c1ccc(Oc2ccc(OC(F)(F)F)cc2)cc1)CS(=O)(=O)N1CCCC1 (centres undefined)
3,145 to 147,O=C(OCc1ccccc1)N1CCN(c2ccc(-c3ccnc(Cl)n3)cn2)CC1
4,218 to 220,O=C(NCC(=O)N1c2ccccc2N(Cc2ccccc2)C(=O)[C@H]2CCC[C@H]21)c1ccc(C(F)(F)F)cc1 (relative stereo)
5,126 to 131,CCOc1cc(N(CC)CC)ccc1C1(N(c2ccccc2)c2ccc(NC(C)=O)cc2)OC(=O)c2ccccc21 (centres undefined)
6,135 to 140,COc1cc2c(cc1OC)CN(CCc1ccc(NC(=O)c3cccc4c(=O)cc(-c5ccccc5)oc34)cc1)CC2
7,135 to 138,COc1cc2ncc(C#N)c(Nc3ccc(F)c(Cl)c3)c2cc1NC(=O)C=CCN1CCSC1
8,148 to 150,Cc1csc(N)c1C(=O)c1ccc(Cl)cc1
9,119 to 122,COc1cccc(CCc2ccccc2C(=O)O)c1
10,5,CCCN(c1ccncc1F)n1c(C)cc2ccccc21
11,67 to 70,COc1ccccc1NC1CN([C@H]2CC[C@@H](c3c[nH]c4ccccc43)CC2)C1
12,138 to 141,Cc1noc(NS(=O)(=O)c2ccc(Cl)cc2Cl)c1Br
13,188,Cc1cccc(NC(=O)NCC(=O)N(CC(=O)O)c2ccccc2)c1
14,212 to 216,CC(=O)c1c(-c2ccc(O)c3ccccc23)oc2ccccc12
15,98 to 99,CC1CCC(C(C)C)C(OC(=O)C2C(=O)N(Cc3ccc(Br)cc3F)C(=O)c3cccn32)C1 (centres undefined)
16,218 to 219,Brc1ccc(-n2c(-c3ccccc3)ccc2-c2ccccc2)cc1
17,208,CC=CCNc1cc(C(=O)O)cc(S(N)(=O)=O)c1Nc1ccc(N)cc1
18,161 to 162,Cc1cccc2[nH]c(-c3ccccc3F)nc12
19,215 to 218,Fc1ccc2[nH]c3c(c2c1)CN(CCCc1cccnc1)CC3
20,111 to 113,C[C@@H]1Cc2ccsc2[C@H](C)N1CCNC(=O)c1cccs1 (relative stereo)
21,155 to 157,c1ccc2c(-c3cnc(CCC4CCCCN4)s3)c[nH]c2c1 (centres undefined)
22,132 to 136,O=C(c1ccc2nonc2c1)N1CCC(O)CC1
23,205 to 207,O=C(CCc1ccccc1)NCC(=O)N1c2ccccc2N(Cc2ccccc2)C(=O)[C@H]2CCC[C@H]21 (relative stereo)
24,200 to 201,CC(C)CC(=O)Nc1c(C(=O)c2cc(CO)co2)[nH]c2cc(Cl)ccc12
25,137 to 140,Cn1nc(-c2cc(C(=O)O)c(Cl)cc2F)c(Cl)c1OC(F)F
26,210 to 213,COc1ccc2[nH]cc(C3=CCC(N4CCN(c5cccc(Cl)n5)CC4)CC3)c2c1 (centres undefined)
27,189 to 191,Cc1cc(S(=O)(=O)c2ccc(N)cc2)cc(Br)n1
